From patent publication US7112594B2, “Fused bicyclic amide compounds and medicinal use thereof” (Mitsubishi Pharma Corporation, priority 2000, dated 2006) come the findings set out here.

By IC50 is commonly meant the point on the concentration scale where inhibition reaches its midpoint.

In one data set the test system is rat lymphocytes. Description: Proliferation of rat lymphocytes stimulated by PMA and calcium ionophore A23187 (tritium thymidine uptake). It is filed as cell-based. The settings on record: Lymphocyte, PMA 10 ng/ml and A23187 100 ng/ml. As for the experimental part:
An RPMI1640 medium (Sigma) was used as a medium, to which kanamycin sulfate (60 μg/ml) and penicillin G potassium (100 units/ml) were added, and then 10% of fetal calf serum (FCS, Gibco) inactivated at 56° C. for 30 min was added and used for the test. The compound of the present invention or a pharmaceutically acceptable salt thereof was dissolved in dimethyl sulfoxide and diluted with the 10% FCS-containing RPMI1640 medium to a desired concentration and used for the test.
The spleens were aseptically removed from 6-week-old male F344 rats or LEW rats (Charles River Japan, Inc.) and minced with tweezers in RPMI1640 medium and then prepared into a single cell suspension of splenic cell. After hematolysis by a hypotonicity treatment using a 9:1 mixed solution of 0.83% aqueous ammonium chloride solution and Tris-HCl buffer (pH 7.65), the suspension was passed through a nylon wool column to give nylon non-adhesive T cell concentration fraction for use. The cell suspension prepared using 10% FCS-containing RPMI1640 medium was added to a flat 96 well microtest plate at 5×10^5 cells/well. The compound of the present invention or a pharmaceutically acceptable salt thereof at a concentration of 0.0001-100 μM, 10 ng/ml of PMA and 100 ng/ml of A23187 were added and the mixture was cultured at 37° C., 5% carbon dioxide and 95% air for 44 hr. After the completion of the culture, tritium thymidine (18.5 kBq/well, specific activity: 185 GBq/mmol, Amersham Pharmacia Biotech) was added and the mixture was cultured at 37° C., 5% carbon dioxide, 95% air for further 4 hr. Then using a cell harvester, the cells were recovered on a glass fiber filter, and using a scintillation counter (MicroBeta 1460) for plate, the radioactivity taken into the cells was measured, and the proliferation of rat lymphocyte induced by stimulation with PMA and A23187 was measured. To be specific, the inhibition rate was calculated by the following formula based on average tritium thymidine uptake (cpm) by lymphocyte in the wells to which various concentrations of the compound of the present invention were added. [formula]
Based on the dose-response curve obtained by plotting average value of tritium thymidine uptake (cpm) or inhibition rate in the longitudinal axis and concentration in the horizontal axis, the concentration (IC50) of the compound that inhibits the level to 50% of the value of the control group was determined by nonlinear regression.

Data set [1] has as its system type II collagen induced arthritis. Description: Type II collagen induced arthritis in DBA/1J mouse. The format is in vivo. The settings on record: repeated oral administration.

In the case of `N#Cc1cc(NC(=O)c2cc3ccccc3s2)ccc1N1CCN(CCO)CC1` [Example 11, N-[3-cyano-4-(4-(2-hydroxyethyl)piperazin-1-yl)phenyl]benzo[b]thiophene-2-carboxamide], the IC50 in the data set with rat lymphocytes stood at 1.5 µM.
For `Cc1[nH]c2ccc(F)cc2c1C(=O)Nc1ccc(Oc2ccccc2)c(C#N)c1` [Example 6, N-(3-cyano-4-phenoxyphenyl)-5-fluoro-2-methyl-1H-indole-3-carboxamide], the IC50 in the data set with rat lymphocytes was 0.39 µM.
Still for that read-out and setting: the same measure for `N#Cc1cc(NC(=O)c2cc3ccccc3o2)ccc1N1CCC(CCO)CC1` [Example 20, N-{3-cyano-4-[4-(2-hydroxyethyl)piperidin-1-yl]phenyl}benzo[b]furan-2-carboxamide]: 0.23 µM.
Still for that read-out and setting: the value for `CC(C)c1ccc2c(O)c(C(=O)Nc3ccc(OCC(C)(C)C)c(C#N)c3)sc2n1` [Example 28, N-(3-cyano-4-neopentyloxyphenyl)-3-hydroxy-6-isopropylthieno[2,3-b]pyridine-2-carboxamide] was 2 µM.
In the case of `Cc1c(C(=O)Nc2ccc(C(F)(F)F)cc2)cnn1-c1ccc(F)cc1` [1-(4-fluorophenyl)-N-(4-trifluoromethylphenyl)-5-methylpyrazole-4-carboxamide], the “improvement of severity of developed arthritis, swelling of the limbs or destruction of joint” value in data set [1] (10 mg/kg body weight) is listed as “did not improve”. Besides, the death result in data set [1] (30 mg/kg body weight) is recorded as “confirmed death”.
